Results: US6737383B1, “Herbicidal oxadiazolidines” (priority 1999, dated 2004)

What was measured:
rape = assay: Test B pre/postemergence rape; type: in vivo, Brassica napus; settings: for Rape plant response rating (0 to 10 scale): 0 is no effect
Outline: (§1)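 Herbicidal effect was estimated by eye on a ten-point control scale after plants spent twelve to sixteen days in a greenhouse following soil or foliar treatment. Foliar sprays targeted plants at one to four leaves; all doses were formulated in a non-phytotoxic solvent with surfactant.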

velvetleaf = assay: Test B pre/postemergence velvetleaf; type: in vivo, Abutilon theophrasti; settings: for Velvetleaf plant response rating (0 to 10 scale): 0 is no effect
Outline: as §1

wheat = assay: Test B pre/postemergence wheat; type: in vivo, Triticum aestivum; settings: for Wheat plant response rating (0 to 10 scale): 0 is no effect
Outline: as §1

bamyardgrass = assay: Test B flood test barnyardgrass; type: in vivo, Echinochloa crus-galli
Outline: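 Each value is a visual injury score relative to controls, with 10 meaning complete control and 0 no effect. Evaluation took place twelve to sixteen days after the 2-leaf-stage plants were treated and kept in the greenhouse.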

[1] = Postemergence, Rate 62 g/ha, scale 0 to 10, 0 is no effect, 10 is complete control
[2] = Postemergence, Rate 125 g/ha, scale of 0 to 10 where 0 is no effect and 10 is complete control
[3] = Postemergence, Rate 250 g/ha, scale 0 to 10, 0 no effect, 10 complete control
[4] = Preemergence, Rate 62 g/ha, scale 0 to 10 (0 no effect, 10 complete control)
[5] = Preemergence, Rate 125 g/ha, scale 0 to 10 (0 no effect, 10 complete control)
[6] = Preemergence, Rate 250 g/ha, scale of 0 to 10 where 0 is no effect and 10 is complete control
[7] = Preemergence, Rate 500 g/ha, scale 0 (no effect) to 10 (complete control)
[8] = Rate 500 g/ha, Postemergence, scale 0 to 10, 0 no effect, 10 complete control
[9] = Rate 250 g/ha, Postemergence, scale 0 to 10, 0 is no effect, 10 is complete control
[10] = Rate 125 g/ha, Postemergence section (flood test species), scale 0 to 10, 0 no effect, 10 complete control
[11] = Rate 500 g/ha, listed under Postemergence (flood test species), scale 0 to 10, 0 no effect, 10 complete control
[12] = flood test, listed under Postemergence, Rate 250 g/ha, scale 0 to 10, 0 no effect, 10 complete control
[13] = Preemergence, Rate 125 g/ha, 10 is complete control
[14] = Preemergence, Rate 250 g/ha, scale 0 to 10, 0 is no effect, 10 is complete control
[15] = Preemergence, Rate 500 g/ha, scale 0 to 10 (0 no effect, 10 complete control)
[16] = Rate 62 g/ha, Postemergence, scale of 0 to 10 where 0 is no effect and 10 is complete control
[17] = Rate 500 g/ha, Postemergence, scale 0 to 10
[18] = Postemergence (flood test species), Rate 125 g/ha, scale of 0 to 10 where 0 is no effect and 10 is complete control
[19] = Rate 62 g/ha, Postemergence section, flood test species, scale of 0 to 10 where 0 is no effect and 10 is complete control
[20] = Rate 250 g/ha, Postemergence (flood test), scale 0 to 10, 0 is no effect, 10 is complete control
[21] = Rate 250 g/ha, Pre-emergence, flood-test species, scale 0 to 10, 0 is no effect, 10 is complete control
[22] = Rate 500 g/ha, listed under Postemergence (flood test species), scale 0 to 10
[23] = Preemergence, Rate 62 g/ha, scale of 0 to 10 where 0 is no effect and 10 is complete control
[24] = Preemergence, Rate 31 g/ha, visual rating, scale 0 to 10 (0 no effect, 10 complete control)
[25] = Rate 125 g/ha, Postemergence, scale 0 to 10

## CC(C)N(C(=O)n1oc(=O)n(-c2cccc3c2CCCC3)c1=O)c1ccc(F)cc1 [Compound 90]
rape; [1]
  Rape plant response rating: 0
rape; [2]
  Rape plant response rating: 0
rape; [3]
  Rape plant response rating: 0
rape; [4]
  Rape plant response rating: 0
rape; [5]
  Plant response rating, Rape: 0
rape; [6]
  Plant response rating, Rape: 0
rape; [7]
  Rape plant response rating: 0
rape; [8]
  Rape plant response rating: 0
velvetleaf; [1]
  Velvetleaf plant response rating: 0
velvetleaf; [2]
  Velvetleaf plant response rating: 0
velvetleaf; [4]
  Velvetleaf plant response rating: 0
velvetleaf; [5]
  Plant response rating, Velvetleaf: 0
velvetleaf; [6]
  Plant response rating, Velvetleaf: 0
velvetleaf; [7]
  Velvetleaf plant response rating: 0
velvetleaf; [9]
  Plant response rating, Velvetleaf: 0
wheat; [1]
  Wheat plant response rating: 0
wheat; [2]
  Wheat plant response rating: 0
wheat; [4]
  Wheat plant response rating: 0
wheat; [5]
  Plant response rating, Wheat: 0
wheat; [6]
  Plant response rating, Wheat: 0
wheat; [7]
  Wheat plant response rating: 0
wheat; [9]
  Plant response rating, Wheat: 0
wheat; [8]
  Wheat plant response rating: 0
bamyardgrass; [1]
  Barnyardgrass plant response rating: 0
bamyardgrass; [10]
  Barnyardgrass plant response rating: 0
bamyardgrass; [11]
  Barnyardgrass plant response rating: 0
bamyardgrass; [12]
  Barnyardgrass plant response rating: 0

## CC(C)N(C(=O)n1oc(=O)n(-c2cnn(C)c2Cl)c1=O)c1ccc(F)cc1 [Compound 97]
rape; [1]
  Rape plant response rating: 0
rape; [2]
  Rape plant response rating: 0
rape; [3]
  Rape plant response rating: 0
rape; [4]
  Rape plant response rating: 0
rape; [5]
  Plant response rating, Rape: 0
rape; [6]
  Plant response rating, Rape: 5
rape; [7]
  Rape plant response rating: 6
rape; [8]
  Rape plant response rating: 3
velvetleaf; [1]
  Velvetleaf plant response rating: 0
velvetleaf; [2]
  Velvetleaf plant response rating: 0
velvetleaf; [4]
  Velvetleaf plant response rating: 0
velvetleaf; [13]
  Velvetleaf plant response rating (0 to 10 scale): 0
velvetleaf; [6]
  Plant response rating, Velvetleaf: 0
velvetleaf; [7]
  Velvetleaf plant response rating: 0
velvetleaf; [9]
  Plant response rating, Velvetleaf: 2
velvetleaf; [8]
  Velvetleaf plant response rating: 3
wheat; [1]
  Wheat plant response rating: 0
wheat; [2]
  Wheat plant response rating: 0
wheat; [4]
  Wheat plant response rating: 0
wheat; [13]
  Wheat plant response rating (0 to 10 scale): 0
wheat; [6]
  Plant response rating, Wheat: 0
wheat; [7]
  Wheat plant response rating: 2
wheat; [9]
  Plant response rating, Wheat: 0
wheat; [8]
  Wheat plant response rating: 0
bamyardgrass; [1]
  Barnyardgrass plant response rating: 0
bamyardgrass; [10]
  Barnyardgrass plant response rating: 0
bamyardgrass; [11]
  Barnyardgrass plant response rating: 0
bamyardgrass; [12]
  Barnyardgrass plant response rating: 0

## CCN(CC)C(=O)n1oc(=O)n(Cc2ccccc2)c1=O [Compound 152]
rape; [2]
  Rape plant response rating: 0
rape; [4]
  Rape plant response rating: 0
rape; [13]
  Rape plant response rating (0 to 10 scale): 0
rape; [14]
  Rape plant response rating: 0
rape; [15]
  Rape plant response rating: 0
rape; [16]
  Rape plant response rating: 0
rape; [9]
  Plant response rating, Rape: 0
rape; [17]
  Rape plant response rating: 0
velvetleaf; [4]
  Velvetleaf plant response rating: 0
velvetleaf; [13]
  Velvetleaf plant response rating (0 to 10 scale): 0
velvetleaf; [14]
  Velvetleaf plant response rating: 0
velvetleaf; [15]
  Velvetleaf plant response rating: 0
velvetleaf; [16]
  Velvetleaf plant response rating: 0
velvetleaf; [9]
  Plant response rating, Velvetleaf: 0
velvetleaf; [17]
  Velvetleaf plant response rating: 0
wheat; [4]
  Wheat plant response rating: 0
wheat; [13]
  Wheat plant response rating (0 to 10 scale): 0
wheat; [14]
  Wheat plant response rating: 0
wheat; [15]
  Wheat plant response rating: 0
wheat; [16]
  Wheat plant response rating: 0
wheat; [9]
  Plant response rating, Wheat: 0
wheat; [17]
  Wheat plant response rating: 0
bamyardgrass; [18]
  Barnyardgrass plant response rating: 0
bamyardgrass; [19]
  Barnyardgrass plant response rating: 0
bamyardgrass; [20]
  Plant response rating, Barnyardgrass: 0
bamyardgrass; [11]
  Barnyardgrass plant response rating: 0

## C=CCn1c(=O)on(C(=O)N(c2ccc(F)cc2)C2CC2)c1=O [Compound 154]
rape; [2]
  Rape plant response rating: 0
rape; [4]
  Rape plant response rating: 0
rape; [13]
  Rape plant response rating (0 to 10 scale): 0
rape; [14]
  Rape plant response rating: 0
rape; [15]
  Rape plant response rating: 0
rape; [16]
  Rape plant response rating: 0
rape; [9]
  Plant response rating, Rape: 0
rape; [17]
  Rape plant response rating: 0
velvetleaf; [4]
  Velvetleaf plant response rating: 0
velvetleaf; [13]
  Velvetleaf plant response rating (0 to 10 scale): 0
velvetleaf; [14]
  Velvetleaf plant response rating: 0
velvetleaf; [15]
  Velvetleaf plant response rating: 0
velvetleaf; [16]
  Velvetleaf plant response rating: 0
velvetleaf; [9]
  Plant response rating, Velvetleaf: 0
velvetleaf; [17]
  Velvetleaf plant response rating: 0
wheat; [4]
  Wheat plant response rating: 0
wheat; [13]
  Wheat plant response rating (0 to 10 scale): 0
wheat; [14]
  Wheat plant response rating: 0
wheat; [15]
  Wheat plant response rating: 0
wheat; [16]
  Wheat plant response rating: 0
wheat; [9]
  Plant response rating, Wheat: 0
wheat; [17]
  Wheat plant response rating: 0
bamyardgrass; [18]
  Barnyardgrass plant response rating: 0
bamyardgrass; [19]
  Barnyardgrass plant response rating: 0
bamyardgrass; [20]
  Plant response rating, Barnyardgrass: 0
bamyardgrass; [21]
  Barnyardgrass plant response rating: 0
bamyardgrass; Rate 500 g/ha, headed Pre-emergence (flood test species), scale 0 to 10 (0 no effect, 10 complete control)
  Plant response rating, Barnyardgrass: 0
bamyardgrass; [22]
  Barnyardgrass plant response rating: 0
bamyardgrass; Rate 1000 g/ha, Pre-emergence (as headed), scale 0 to 10
  Barnyardgrass plant response rating: 0
bamyardgrass; Rate 2000 g/ha, Pre-emergence (as headed), scale 0 to 10, 0 no effect, 10 complete control
  Barnyardgrass plant response rating: 0

## Cc1nsc(C)c1-n1c(=O)on(C(=O)N(c2ccc(Cl)cc2)C(C)C)c1=O [Compound 159]
rape; [2]
  Rape plant response rating: 0
rape; [23]
  Rape plant response rating: 0
rape; [13]
  Rape plant response rating (0 to 10 scale): 0
rape; [14]
  Rape plant response rating: 0
rape; [15]
  Rape plant response rating: 0
rape; [16]
  Rape plant response rating: 0
rape; [9]
  Plant response rating, Rape: 0
rape; [17]
  Rape plant response rating: 0
velvetleaf; [23]
  Velvetleaf plant response rating: 0
velvetleaf; [13]
  Velvetleaf plant response rating (0 to 10 scale): 0
velvetleaf; [14]
  Velvetleaf plant response rating: 0
velvetleaf; [15]
  Velvetleaf plant response rating: 0
velvetleaf; [9]
  Plant response rating, Velvetleaf: 0
velvetleaf; [17]
  Velvetleaf plant response rating: 0
wheat; [23]
  Wheat plant response rating: 0
wheat; [13]
  Wheat plant response rating (0 to 10 scale): 0
wheat; [14]
  Wheat plant response rating: 0
wheat; [15]
  Wheat plant response rating: 0
wheat; [9]
  Plant response rating, Wheat: 0
wheat; [17]
  Wheat plant response rating: 0
bamyardgrass; [18]
  Barnyardgrass plant response rating: 0
bamyardgrass; [19]
  Barnyardgrass plant response rating: 0
bamyardgrass; [20]
  Plant response rating, Barnyardgrass: 0
bamyardgrass; [22]
  Barnyardgrass plant response rating: 0

## Cc1ccccc1-n1c(=O)on(C(=O)N(c2ccc(F)cc2)C2CCC2)c1=O [Compound 200]
rape; [24]
  Rape plant response rating: 0
rape; [23]
  Rape plant response rating: 0
rape; [13]
  Rape plant response rating (0 to 10 scale): 0
rape; [14]
  Rape plant response rating: 0
rape; Rate 31 g/ha, Postemergence, scale 0 to 10
  Rape plant response rating: 0
rape; [16]
  Rape plant response rating: 0
rape; [25]
  Rape plant response rating: 0
rape; Rate 250 g/ha, Postemergence
  Plant response rating (0 to 10; 0 is no effect, 10 is complete control), Rape: 0
velvetleaf; [24]
  Velvetleaf plant response rating: 0
velvetleaf; [23]
  Velvetleaf plant response rating: 0
velvetleaf; [14]
  Velvetleaf plant response rating: 0
velvetleaf; [16]
  Velvetleaf plant response rating: 0
velvetleaf; [25]
  Velvetleaf plant response rating: 0
velvetleaf; Rate 250 g/ha, Postemergence
  Plant response rating (0 to 10; 0 is no effect, 10 is complete control), Velvetleaf: 1
wheat; [24]
  Wheat plant response rating: 0
wheat; [23]
  Wheat plant response rating: 0
wheat; [14]
  Wheat plant response rating: 0
wheat; [16]
  Wheat plant response rating: 0
wheat; [25]
  Wheat plant response rating: 0
wheat; Rate 250 g/ha, Postemergence
  Plant response rating (0 to 10; 0 is no effect, 10 is complete control), Wheat: 0
bamyardgrass; Rate 31 g/ha, Pre-emergence section (flood test species), scale 0 to 10
  Barnyardgrass plant response rating: 0
bamyardgrass; Rate 62 g/ha, headed Pre-emergence (flood test species), scale 0 to 10 (0 no effect, 10 complete control)
  Barnyardgrass plant response rating: 0
bamyardgrass; Rate 125 g/ha, Pre-emergence, flood test species, scale 0 to 10 where 0 is no effect and 10 is complete control
  Barnyardgrass plant response rating: 0
bamyardgrass; [21]
  Barnyardgrass plant response rating: 0
